Source: patent US20260125382A1, “COMPOUNDS FOR INHIBITING OR DEGRADING CDK2 AND/OR CDK9 AND MEDICINAL USE THEREOF” (KOREA RESEARCH INSTITUTE OF CHEMICAL TECHNOLOGY, priority 2022, published 2026)

Experiments:
CDK2 = target: T1, CDK2 (Homo sapiens, UniProt P24941); assay: CDK protein degradation activity (Western blotting), CDK2; assay type: cell-based; conditions: MDA-MB-231 cells, 16 hours, Western blot
T1 construct: endogenous in cells; host or cells: MDA-MB-231
Method in brief: (§1)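 Degradation is judged from CDK2 and CDK9 band intensity relative to tubulin and DMSO-treated cells, after 16 h exposure of MDA-MB-231 cells to three compound concentrations (100 nM, 1 μM, 10 μM).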

CDK9 = target: T2, CDK9 (Homo sapiens, UniProt P50750); assay: CDK protein degradation activity (Western blotting), CDK9; assay type: cell-based; conditions: MDA-MB-231 cells, 16 hours, Western blot
T2 construct: endogenous in cells; host or cells: MDA-MB-231
T2 sequence (P50750 whole entry): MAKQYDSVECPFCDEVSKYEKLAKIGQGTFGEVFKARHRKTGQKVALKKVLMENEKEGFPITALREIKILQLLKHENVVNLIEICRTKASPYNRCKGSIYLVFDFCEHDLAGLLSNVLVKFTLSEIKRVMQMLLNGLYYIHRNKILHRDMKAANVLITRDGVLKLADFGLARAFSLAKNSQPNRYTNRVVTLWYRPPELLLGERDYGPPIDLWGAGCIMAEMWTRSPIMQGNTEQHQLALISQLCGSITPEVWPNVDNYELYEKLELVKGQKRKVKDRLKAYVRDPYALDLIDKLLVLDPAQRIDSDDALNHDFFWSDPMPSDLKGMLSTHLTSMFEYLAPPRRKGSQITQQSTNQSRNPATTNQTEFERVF
Method in brief: as §1

Enzyme degradation CDK2 (% remaining) @ 0.1 μM (CDK2)	Enzyme degradation CDK2 (% remaining) @ 1 μM (CDK2)	Enzyme degradation CDK2 (% remaining) @ 10 μM (CDK2)	Enzyme degradation CDK9 (% remaining) @ 0.1 μM (CDK9)	Enzyme degradation CDK9 (% remaining) @ 1 μM (CDK9)	Enzyme degradation CDK9 (% remaining) @ 10 μM (CDK9)	SMILES
70%	90%	100%	40%	30%	10%	O=C1CC[C@H](N2C(=O)c3ccc(N4CCC(CCCN5CCN(c6ccc(Nc7ncnc8c7ncn8C7CC(NC(=O)Cc8ccccc8)C7)cc6)CC5)CC4)cc3C2=O)C(=O)N1 (stereo partly drawn) [Compound 262, N-((1s,3s)-3-(6-((4-(4-(3-(1-(2-(2,6-dioxopiperidin-3-yl)-1,3-dioxoisoindolin-5-yl)piperidin-4-yl)propyl)piperazin-1-yl)phenyl)amino)-9H-purin-9-yl)cyclobutyl)-2-phenylacetamide]
50%	40%	40%	20%	0%	0%	O=C1CC[C@H](N2C(=O)c3cccc(NCC(=O)N4CCC5(CC(N6CCN(c7ccc(Nc8ncnc9c8ncn9C8CC(NC(=O)Cc9ccccc9)C8)cc7)CC6)C5)C4)c3C2=O)C(=O)N1 (stereo partly drawn) [Compound 263, N-((1s,3s)-3-(6-((4-(4-(6-((2-(2,6-dioxopiperidin-3-yl)-1,3-dioxoisoindolin-4-yl)glycyl)-6-azaspiro[3.4]octan-2-yl)piperazin-1-yl)phenyl)amino)-9H-purin-9-yl)cyclobutyl)-2-phenylacetamide]
50%	20%	10%	90%	40%	0%	O=C1CC[C@H](N2C(=O)c3cccc(OCC(=O)N4CCC5(CC(N6CCN(c7ccc(Nc8ncnc9c8ncn9[C@H]8C[C@@H](NC(=O)Cc9ccccc9)C8)cc7)CC6)C5)C4)c3C2=O)C(=O)N1 (stereo partly drawn) [Compound 264, N-((1s,3s)-3-(6-((4-(4-(6-(2-((2-(2,6-dioxopiperidin-3-yl)-1,3-dioxoisoindolin-4-yl)oxy)acetyl)-6-azaspiro[3.4]octan-2-yl)piperazin-1-yl)phenyl)amino)-9H-purin-9-yl)cyclobutyl)-2-phenylacetamide]
90%	70%	70%	10%	0%	0%	O=C1CC[C@H](N2C(=O)c3ccc(NCC(=O)N4CCC5(CC(N6CCN(c7ccc(Nc8ncnc9c8ncn9[C@H]8C[C@@H](NC(=O)Cc9ccccc9)C8)cc7)CC6)C5)C4)cc3C2=O)C(=O)N1 (stereo partly drawn) [Compound 265, N-((1s,3s)-3-(6-((4-(4-(6-((2-(2,6-dioxopiperidin-3-yl)-1,3-dioxoisoindolin-5-yl)glycyl)-6-azaspiro[3.4]octan-2-yl)piperazin-1-yl)phenyl)amino)-9H-purin-9-yl)cyclobutyl)-2-phenylacetamide]
70%	50%	20%	70%	0%	0%	O=C1CC[C@@H](c2ccc(OCC(=O)N3CCC4(CC(N5CCN(c6ccc(Nc7ncnc8c7ncn8C7CC(NC(=O)Cc8ccccc8)C7)cc6)CC5)C4)C3)cc2)C(=O)N1 (stereo partly drawn) [Compound 268, N-((1s,3s)-3-(6-((4-(4-(6-(2-(4-(2,6-dioxopiperidin-3-yl)phenoxy)acetyl)-6-azaspiro[3.4]octan-2-yl)piperazin-1-yl)phenyl)amino)-9H-purin-9-yl)cyclobutyl)-2-phenylacetamide]
10/10/10%	10/10/10%	10/10/10%	30%	10%	10%	O=C1CCC(c2cccc(OCC(=O)N3CCC4(CC(N5CCN(c6ccc(Nc7ncnc8c7ncn8[C@H]7C[C@@H](NC(=O)Cc8ccccc8)C7)cc6)CC5)C4)C3)c2)C(=O)N1 (stereo partly drawn) [Compound 269, N-((1s,3s)-3-(6-((4-(4-(6-(2-(3-(2,6-dioxopiperidin-3-yl)phenoxy)acetyl)-6-azaspiro[3.4]octan-2-yl)piperazin-1-yl)phenyl)amino)-9H-purin-9-yl)cyclobutyl)-2-phenylacetamide]
40%	30%	30%	40%	30%	30%	O=C1CC[C@H](N2C(=O)c3cccc(N4CC(N5CCC6(CC5)CC(N5CCN(c7ccc(Nc8ncnc9c8ncn9[C@H]8C[C@@H](NC(=O)Cc9ccccc9)C8)cc7)CC5)C6)C4)c3C2=O)C(=O)N1 [Compound 270, N-((1s,3s)-3-(6-((4-(4-(7-(1-(2-(2,6-dioxopiperidin-3-yl)-1,3-dioxoisoindolin-4-yl)azetidin-3-yl)-7-azaspiro[3.5]nonan-2-yl)piperazin-1-yl)phenyl)amino)-9H-purin-9-yl)cyclobutyl)-2-phenylacetamide]
30%	40%	40%	20%	10%	10%	O=C1CC[C@H](N2C(=O)c3ccc(N4CC(N5CCC6(CC5)CC(N5CCN(c7ccc(Nc8ncnc9c8ncn9C8CC(NC(=O)Cc9ccccc9)C8)cc7)CC5)C6)C4)cc3C2=O)C(=O)N1 (stereo partly drawn) [Compound 271, N-((1s,3s)-3-(6-((4-(4-(7-(1-(2-(2,6-dioxopiperidin-3-yl)-1,3-dioxoisoindolin-5-yl)azetidin-3-yl)-7-azaspiro[3.5]nonan-2-yl)piperazin-1-yl)phenyl)amino)-9H-purin-9-yl)cyclobutyl)-2-phenylacetamide]
40/40/40%	40/40/40%	40/40/40%	30%	20%	20%	COc1ccc(C(=O)N2CC(N3CCC4(CC3)CC(N3CCN(c5ccc(Nc6ncnc7c6ncn7[C@H]6C[C@@H](NC(=O)Cc7ccccc7)C6)cc5)CC3)C4)C2)cc1N1CCC(=O)NC1=O [Compound 272, N-((1s,3s)-3-(6-((4-(4-(7-(1-(3-(2,4-dioxotetrahydropyrimidin-1(2H)-yl)-4-methoxybenzoyl)azetidin-3-yl)-7-azaspiro[3.5]nonan-2-yl)piperazin-1-yl)phenyl)amino)-9H-purin-9-yl)cyclobutyl)-2-phenylacetamide]
100%	70%	50%	20%	10%	10%	O=C1CC[C@@H](c2ccc(OCC(=O)N3CC(N4CCC5(CC4)CC(N4CCN(c6ccc(Nc7ncnc8c7ncn8[C@H]7C[C@@H](NC(=O)Cc8ccccc8)C7)cc6)CC4)C5)C3)cc2)C(=O)N1 [Compound 273, N-((1s,3s)-3-(6-((4-(4-(7-(1-(2-(4-(2,6-dioxopiperidin-3-yl)phenoxy)acetyl)azetidin-3-yl)-7-azaspiro[3.5]nonan-2-yl)piperazin-1-yl)phenyl)amino)-9H-purin-9-yl)cyclobutyl)-2-phenylacetamide]
30%	20%	20%	30/30/30%	30/30/30%	30/30/30%	O=C1CC[C@@H](c2cccc(OCC(=O)N3CC(N4CCC5(CC4)CC(N4CCN(c6ccc(Nc7ncnc8c7ncn8[C@H]7C[C@@H](NC(=O)Cc8ccccc8)C7)cc6)CC4)C5)C3)c2)C(=O)N1 [Compound 274, N-((1s,3s)-3-(6-((4-(4-(7-(1-(2-(3-(2,6-dioxopiperidin-3-yl)phenoxy)acetyl)azetidin-3-yl)-7-azaspiro[3.5]nonan-2-yl)piperazin-1-yl)phenyl)amino)-9H-purin-9-yl)cyclobutyl)-2-phenylacetamide]
80%	60%	60%	70%	30%	0%	O=C1CCC(c2ccc(OCC(=O)N3CC(CN4CCC5(CC4)CC(N4CCN(c6ccc(Nc7ncnc8c7ncn8[C@H]7C[C@@H](NC(=O)Cc8ccccc8)C7)cc6)CC4)C5)C3)cc2)C(=O)N1 (stereo partly drawn) [Compound 275, N-((1s,3s)-3-(6-((4-(4-(7-((1-(2-(4-(2,6-dioxopiperidin-3-yl)phenoxy)acetyl)azetidin-3-yl)methyl)-7-azaspiro[3.5]nonan-2-yl)piperazin-1-yl)phenyl)amino)-9H-purin-9-yl)cyclobutyl)-2-phenylacetamide]
